Common to all, as to assay type: cell-based
For one experiment, the target named is T1, KRAS WT (Homo sapiens, UniProt P01116).
T1 construct: expressed in transfected cells
In words: Cellular KRAS:RAF Disruption Assay (NanoBRET), KRAS WT. The conditions noted are these: HEK293 T cells co-expressing RAF1 and wild type KRAS, 24 hours; read-out: RAS::RAF binding via NanoBRET IC50, KRAS WT. The procedure:
(§1) Cellular KRAS:RAF Disruption Assay
(§2) Stable cell lines (HEK293 T) were generated to co-express RAF1 and mutant or wild type KRAS, as indicated, using the BiBRET vector (Promega). Engineered cell lines were suspended in media (OptiMEM, […]), plated in 384-well plates (8000 cells/well), and allowed to rest for 1.5 hours. Cells were treated with compounds for 24 hours, and NanoBRET NanoGlo substrate (Promega) was added per the manufacturer's instructions.

In the next experiment the target is T2, KRAS G12A (Homo sapiens, UniProt P01116, G12A).
T2 construct: expressed in transfected cells
The experiment is described as follows: Cellular KRAS:RAF Disruption Assay (NanoBRET), KRAS G12A. As to conditions: HEK293 T cells co-expressing RAF1 and KRAS G12A, 24 hours; read-out: RAS::RAF binding via NanoBRET IC50, KRAS G12A. The procedure: as §1, §2

The target of another experiment is T3, KRAS G12V (Homo sapiens, UniProt P01116, G12V).
T3 construct: expressed in transfected cells
In words: Cellular KRAS:RAF Disruption Assay (NanoBRET), KRAS G12V. As to conditions: HEK293 T cells co-expressing RAF1 and KRAS G12V, 24 hours; read-out: RAS::RAF binding via NanoBRET IC50, KRAS G12V. The procedure:
as §1, §2
On the technique in general: Bioluminescence resonance energy transfer reports proximity on the nanometre scale.

In the next experiment the target is T4, KRAS G12C (Homo sapiens, UniProt P01116, G12C).
T4 construct: expressed in transfected cells
The experiment is described as follows: Cellular KRAS:RAF Disruption Assay (NanoBRET), KRAS G12C. The conditions noted are these: HEK293 T cells co-expressing RAF1 and KRAS G12C, 24 hours; read-out: RAS::RAF binding via NanoBRET IC50, KRAS G12C. The procedure:
as §1, §2

In another experiment the target is T5, KRAS Q61H (Homo sapiens, UniProt P01116, Q61H).
T5 construct: expressed in transfected cells
In words: Cellular KRAS:RAF Disruption Assay (NanoBRET), KRAS Q61H. As to conditions: HEK293 T cells co-expressing RAF1 and KRAS Q61H, 24 hours; read-out: RAS::RAF binding via NanoBRET IC50, KRAS Q61H. The procedure:
as §1, §2

The target of the next experiment is T6, KRAS G12R (Homo sapiens, UniProt P01116, G12R).
T6 construct: expressed in transfected cells
The experiment is described as follows: Cellular KRAS:RAF Disruption Assay (NanoBRET), KRAS G12R. As to conditions: HEK293 T cells co-expressing RAF1 and KRAS G12R, 24 hours; read-out: RAS::RAF binding via NanoBRET IC50, KRAS G12R. The procedure: as §1, §2

The target in the next experiment is T7, KRAS G12S (Homo sapiens, UniProt P01116, G12S).
T7 construct: expressed in transfected cells
The experiment is described as follows: Cellular KRAS:RAF Disruption Assay (NanoBRET), KRAS G12S. As to conditions: HEK293 T cells co-expressing RAF1 and KRAS G12S, 24 hours; read-out: RAS::RAF binding via NanoBRET IC50, KRAS G12S. The procedure:
as §1, §2

Another experiment has as its target T8, KRAS A146T (Homo sapiens, UniProt P01116, A146T).
T8 construct: expressed in transfected cells
In words: Cellular KRAS:RAF Disruption Assay (NanoBRET), KRAS A146T. The conditions noted are these: HEK293 T cells co-expressing RAF1 and KRAS A146T, 24 hours; read-out: RAS::RAF binding via NanoBRET IC50, KRAS A146T. The procedure:
as §1, §2

In another experiment the target is T9, KRAS G13D (Homo sapiens, UniProt P01116, G13D).
T9 construct: expressed in transfected cells
In words: Cellular KRAS:RAF Disruption Assay (NanoBRET), KRAS G13D. As to conditions: HEK293 T cells co-expressing RAF1 and KRAS G13D, 24 hours; read-out: RAS::RAF binding via NanoBRET IC50, KRAS G13D. The procedure: as §1, §2

Another experiment concerns the target T10, KRAS Q61R (Homo sapiens, UniProt P01116, Q61R).
T10 construct: expressed in transfected cells
In words: Cellular KRAS:RAF Disruption Assay (NanoBRET), KRAS Q61R. As to conditions: HEK293 T cells co-expressing RAF1 and KRAS Q61R, 24 hours; read-out: RAS::RAF binding via NanoBRET IC50, KRAS Q61R. The procedure:
as §1, §2

pIC50: −log10 of the molar value.

By pIC50 is commonly meant −log10 of the IC50, conventionally taken in molar units.

T3 sequence (P01116 1-188 isoform P01116-2 G12V): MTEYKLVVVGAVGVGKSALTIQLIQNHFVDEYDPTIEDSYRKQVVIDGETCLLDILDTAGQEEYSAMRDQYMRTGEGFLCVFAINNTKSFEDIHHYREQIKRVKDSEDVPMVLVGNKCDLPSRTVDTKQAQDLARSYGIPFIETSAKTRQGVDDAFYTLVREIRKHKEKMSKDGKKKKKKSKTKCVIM
T10 sequence (P01116 1-188 isoform P01116-2 Q61R): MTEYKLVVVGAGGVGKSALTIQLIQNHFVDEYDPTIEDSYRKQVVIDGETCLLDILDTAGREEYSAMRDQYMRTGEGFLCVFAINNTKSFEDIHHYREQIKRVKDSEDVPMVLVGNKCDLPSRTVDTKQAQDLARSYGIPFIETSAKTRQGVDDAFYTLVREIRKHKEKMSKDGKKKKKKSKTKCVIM
T5 sequence (P01116 1-188 isoform P01116-2 Q61H): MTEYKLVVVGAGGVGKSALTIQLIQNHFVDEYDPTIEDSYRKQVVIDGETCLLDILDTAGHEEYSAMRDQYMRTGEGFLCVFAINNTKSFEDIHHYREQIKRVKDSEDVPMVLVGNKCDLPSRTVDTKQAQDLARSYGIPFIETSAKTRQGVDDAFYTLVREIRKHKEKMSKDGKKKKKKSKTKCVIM
T1 sequence (P01116 1-188 isoform P01116-2): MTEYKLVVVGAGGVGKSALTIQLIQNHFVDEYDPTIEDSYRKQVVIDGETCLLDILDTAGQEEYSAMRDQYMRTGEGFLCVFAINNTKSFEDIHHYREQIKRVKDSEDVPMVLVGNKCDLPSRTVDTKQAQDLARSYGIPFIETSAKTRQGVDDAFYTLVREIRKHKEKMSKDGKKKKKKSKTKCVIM
T7 sequence (P01116 1-188 isoform P01116-2 G12S): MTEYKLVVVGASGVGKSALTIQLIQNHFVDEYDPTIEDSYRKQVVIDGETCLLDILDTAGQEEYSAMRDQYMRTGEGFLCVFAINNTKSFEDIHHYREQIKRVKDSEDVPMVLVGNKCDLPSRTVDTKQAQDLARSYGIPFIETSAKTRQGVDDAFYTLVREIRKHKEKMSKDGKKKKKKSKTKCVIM
T9 sequence (P01116 1-188 isoform P01116-2 G13D): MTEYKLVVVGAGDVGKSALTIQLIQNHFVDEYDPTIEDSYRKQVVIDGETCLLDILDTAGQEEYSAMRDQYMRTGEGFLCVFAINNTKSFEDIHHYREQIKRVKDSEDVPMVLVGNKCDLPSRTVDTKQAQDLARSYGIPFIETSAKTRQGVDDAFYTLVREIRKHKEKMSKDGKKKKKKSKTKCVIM
T4 sequence (P01116 1-188 isoform P01116-2 G12C): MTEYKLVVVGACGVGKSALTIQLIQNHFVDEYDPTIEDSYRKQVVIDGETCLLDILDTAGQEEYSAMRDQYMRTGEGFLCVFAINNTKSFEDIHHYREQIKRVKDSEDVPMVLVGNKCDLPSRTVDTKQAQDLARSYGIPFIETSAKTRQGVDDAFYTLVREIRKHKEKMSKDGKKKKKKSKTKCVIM
T6 sequence (P01116 1-188 isoform P01116-2 G12R): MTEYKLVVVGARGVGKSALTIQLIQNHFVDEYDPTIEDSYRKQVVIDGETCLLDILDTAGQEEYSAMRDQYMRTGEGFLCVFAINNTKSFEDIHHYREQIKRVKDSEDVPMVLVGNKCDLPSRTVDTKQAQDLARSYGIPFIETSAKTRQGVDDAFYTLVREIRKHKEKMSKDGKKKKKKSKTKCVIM
T8 sequence (P01116 1-188 isoform P01116-2 A146T): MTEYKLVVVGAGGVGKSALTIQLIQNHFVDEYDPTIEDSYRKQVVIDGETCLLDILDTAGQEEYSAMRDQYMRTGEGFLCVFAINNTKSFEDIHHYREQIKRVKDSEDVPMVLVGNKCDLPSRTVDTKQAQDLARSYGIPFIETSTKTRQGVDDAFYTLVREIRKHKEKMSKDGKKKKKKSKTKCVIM
T2 sequence (P01116 1-188 isoform P01116-2 G12A): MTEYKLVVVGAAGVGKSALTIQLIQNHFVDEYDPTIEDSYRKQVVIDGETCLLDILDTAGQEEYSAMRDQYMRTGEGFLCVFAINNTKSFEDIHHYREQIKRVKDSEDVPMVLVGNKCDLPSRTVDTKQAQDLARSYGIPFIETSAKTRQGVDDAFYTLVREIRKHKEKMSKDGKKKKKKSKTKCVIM

As for `C#Cc1c(F)ccc2cc(O)cc(-c3ncc4c(N5CCOCC(C)(O)C5)nc(OC[C@]56CCC[C@H]5N(C)CCC6)nc4c3F)c12` (stereo partly drawn) [Example 1-108, 4-(2-{[(4aS,7aR)-1-methyl-octahydro-1H-cyclopenta[b]pyridin-4a-yl]methoxy}-7-(8-ethynyl-7-fluoro-3-hydroxynaphthalen-1-yl)-8-fluoropyrido[4,3-d]pyrimidin-4-yl)-6-methyl-1,4-oxazepan-6-ol], the pIC50 at KRAS WT was 7.76; on KRAS G12A it was 7.88; at KRAS G12V, 6.85; on KRAS G12C, 7.73.
Consider `C#Cc1c(F)ccc2cc(O)cc(-c3ccc4c(N5CCCOCC5)nc(OC[C@]56CCC[C@H]5N(C)CCC6)nc4c3F)c12` [Example 2-3, 4-(2-{[(4aS,7aR)-1-methyl-octahydro-1H-cyclopenta[b]pyridin-4a-yl]methoxy}-8-fluoro-4-(1,4-oxazepan-4-yl)quinazolin-7-yl)-5-ethynyl-6-fluoronaphthalen-2-ol], for which the negative logarithm of the IC50 (pIC50) is 7.96 on KRAS WT; 7.74 at KRAS G12A; 7.14 on KRAS Q61H; 5.97 on KRAS G12R; 7.41 on KRAS G12S; 7.09 on KRAS A146T. The pIC50 was 7.31 at KRAS G13D, 6.76 at KRAS G12V, 7.62 on KRAS G12C and less than 5.30 on KRAS Q61R.
As to `C#Cc1c(F)ccc2cc(O)cc(-c3ccc4c(N5C[C@@H]6C[C@H]5C(=O)N6)nc(OC[C@]56CCC[C@H]5N(C)CCC6)nc4c3F)c12` [Example 5-1, (1S,4S)-5-(2-{[(4aS,7aR)-1-methyl-octahydro-1H-cyclopenta[b]pyridin-4a-yl]methoxy}-7-(8-ethynyl-7-fluoro-3-hydroxynaphthalen-1-yl)-8-fluoroquinazolin-4-yl)-2,5-diazabicyclo[2.2.1]heptan-3-one], the pIC50 at KRAS WT was 6.62; at KRAS G12A, 6.06; at KRAS G12V, 5.60; on KRAS G12C, 6.08.
For the molecule `C#Cc1c(F)ccc2cc(O)cc(-c3ncc4c(N5CC6COC(C6)C5)nc(OC[C@@]56CCCN5C[C@H](F)C6)nc4c3F)c12` (stereo partly drawn) [Example 1-90, 4-(2-{[(2R,7aS)-2-fluoro-hexahydro-1H-pyrrolizin-7a-yl]methoxy}-8-fluoro-4-{6-oxa-3-azabicyclo [3.2.1]octan-3-yl}pyrido[4,3-d]pyrimidin-7-yl)-5-ethynyl-6-fluoronaphthalen-2-ol], the pIC50 at KRAS WT is 7.92; at KRAS G12A, 7.71; at KRAS G12V, 6.71; at KRAS G12C, 7.38.
The matching figures for `C#Cc1c(F)ccc2cc(O)cc(-c3ncc4c(N5CCOC6CC65)nc(OC[C@]56CCC[C@H]5N(C)CCC6)nc4c3F)c12` (single isomer, unassigned) [Example 1-99]: 8.52, 7.92, 6.90 and 7.96.
Turning to `C#Cc1c(F)ccc2cc(O)cc(-c3ccc4c(N5CCCOCC5)nc(OC[C@@]56CCCN5C[C@H](F)C6)nc4c3F)c12` [Example 2-2, 4-(2-{[(2R,7aS)-2-fluoro-hexahydro-1H-pyrrolizin-7a-yl]methoxy}-8-fluoro-4-(1,4-oxazepan-4-yl)quinazolin-7-yl)-5-ethynyl-6-fluoronaphthalen-2-ol], the pIC50 at KRAS WT was 8.70; at KRAS G12A, 8.52; at KRAS Q61H, 7.80; on KRAS G12R it was 6.69; on KRAS G12S, 8.22; on KRAS A146T, 7.77. Besides, the pIC50 is 8.10 on KRAS G13D, 7.59 at KRAS G12V, 8.30 on KRAS G12C and 5.64 on KRAS Q61R.
In the case of `C#Cc1c(F)ccc2cc(O)cc(-c3ncc4c(N5C6COCC5C6)nc(OC[C@@]56CCCN5C[C@H](F)C6)nc4c3F)c12` [Example 1-35, 4-(2-{[(2R,7aS)-2-fluoro-hexahydro-1H-pyrrolizin-7a-yl]methoxy}-8-fluoro-4-{3-oxa-6-azabicyclo[3.1.1]heptan-6-yl}pyrido[4,3-d]pyrimidin-7-yl)-5-ethynyl-6-fluoronaphthalen-2-ol], the pIC50 on KRAS WT was 7.89; on KRAS G12A, 8.00; on KRAS Q61H, 7.51; on KRAS G12R, 5.37; on KRAS G12S, 7.96; on KRAS A146T, 7.40. Moreover, the pIC50 at KRAS G13D was 7.66; at KRAS G12V it was 7.49; at KRAS G12C it was 7.92; at KRAS Q61R, less than 5.00.
Take `C#Cc1c(F)ccc2cc(O)cc(-c3ccc4c(N5CC6CCC(C5)N6C(=O)C(F)(F)F)nc(OC[C@@]56CCCN5C[C@H](F)C6)nc4c3F)c12` [Example 7-3, 1-[3-(2-{[(2R,7aS)-2-fluoro-hexahydro-1H-pyrrolizin-7a-yl]methoxy}-7-(8-ethynyl-7-fluoro-3-hydroxynaphthalen-1-yl)-8-fluoroquinazolin-4-yl)-3,8-diazabicyclo[3.2.1]octan-8-yl]-2,2,2-trifluoroethan-1-one]: the negative-log IC50 (pIC50) is 7.40 on KRAS WT; 6.84 at KRAS G12A; 6.32 on KRAS Q61H; 5.12 on KRAS G12R; 6.50 on KRAS G12S; 6.50 at KRAS A146T. In addition, the pIC50 was 6.70 at KRAS G13D, 6.17 at KRAS G12V, 6.44 on KRAS G12C and less than 5.00 at KRAS Q61R.
For `C#Cc1c(F)ccc2cc(O)cc(-c3ncc4c(N5CCCC(C)(O)C5)nc(OC[C@]56CCC[C@H]5N(C)CCC6)nc4c3F)c12` (single isomer, unassigned) [Example 1-89], the pIC50 on KRAS WT is 8.07; at KRAS G12A, 8.32; at KRAS G12V, 7.70; on KRAS G12C, 8.03.
The matching figures for `C#Cc1c(F)ccc2cc(O)cc(-c3ncc4c(N5CCOCC(F)(F)C5)nc(OC[C@]56CCC[C@H]5N(C)CCC6)nc4c3F)c12` [Example 1-107, 4-(2-{[(4aS,7aR)-1-methyl-octahydro-1H-cyclopenta[b]pyridin-4a-yl]methoxy}-4-(6,6-difluoro-1,4-oxazepan-4-yl)-8-fluoropyrido[4,3-d]pyrimidin-7-yl)-5-ethynyl-6-fluoronaphthalen-2-ol]: 8.01, 8.28, 6.88 and 8.01.
Take `C#Cc1c(F)ccc2cc(O)cc(-c3ccc4c(N5CCCC(C)(O)C5)nc(OC[C@]56CCC[C@H]5N(C)CCC6)nc4c3F)c12` (stereo partly drawn) [Example 2-72, 1-(2-{[(4aS,7aR)-1-methyl-octahydro-1H-cyclopenta[b]pyridin-4a-yl]methoxy}-7-(8-ethynyl-7-fluoro-3-hydroxynaphthalen-1-yl)-8-fluoroquinazolin-4-yl)-3-methylpiperidin-3-ol]: the negative-log IC50 (pIC50) at KRAS WT is 8.44; at KRAS G12A, 8.05; at KRAS G12V, 7.39; on KRAS G12C, 7.89.
As to `C#Cc1c(F)ccc2cc(O)cc(-c3ncc4c(N5CCOC6CC65)nc(OC[C@@]56CCCN5C[C@H](F)C6)nc4c3F)c12` (stereo partly drawn) [Example 1-100, 4-(2-{[(2R,7aS)-2-fluoro-hexahydro-1H-pyrrolizin-7a-yl]methoxy}-8-fluoro-4-{2-oxa-5-azabicyclo[4.1.0]heptan-5-yl}pyrido[4,3-d]pyrimidin-7-yl)-5-ethynyl-6-fluoronaphthalen-2-ol], the pIC50 on KRAS WT is 7.91; on KRAS G12A, 8.34; on KRAS G12V, 6.93; on KRAS G12C it was 7.89.

Values taken from patent publication US20240199584A1, “KRAS INHIBITORS” (Bristol-Myers Squibb Company, priority 2022, published 2024).
